# Experimental data as given in patent publication US5691362A, “Substituted benzene-fused hetero- and carbocyclics as nuerokinin antagonists” (Schering-Plough Corporation, priority 1996, dated 1997).
# Like-named read-outs stand apart in the source and are kept apart here.
# Experiments:
# [1] = biological target: T1, human neurokinin 2 (NK2) receptor (Homo sapiens, UniProt P21452); experiment: Neurokinin receptor binding assay, NK2 ([3H]-Neurokinin A); settings: for inhibition at 1 µM: read-out: % Inhibition NK2 (1 μM dose)
# T1 construct: expressed in transfected cells; host or cells: Chinese hamster ovary (CHO) cells, membranes
# T1 sequence (P21452 1-398): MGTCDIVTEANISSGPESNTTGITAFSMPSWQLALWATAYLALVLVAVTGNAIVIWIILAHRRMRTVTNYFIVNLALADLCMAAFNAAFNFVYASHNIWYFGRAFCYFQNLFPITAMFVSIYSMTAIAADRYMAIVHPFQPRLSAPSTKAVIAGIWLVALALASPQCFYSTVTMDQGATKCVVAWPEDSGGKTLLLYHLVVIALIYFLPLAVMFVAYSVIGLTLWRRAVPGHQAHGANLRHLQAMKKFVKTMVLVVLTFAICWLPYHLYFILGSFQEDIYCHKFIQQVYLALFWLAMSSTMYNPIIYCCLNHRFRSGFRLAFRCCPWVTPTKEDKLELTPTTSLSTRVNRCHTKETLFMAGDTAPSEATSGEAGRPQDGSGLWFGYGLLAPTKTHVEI
# Procedure: (§1) Chinese Hamster ovary (CHO) cells transfected with the coding regions for the human neurokinin 1 (NK1) of the human neurokinin 2 (NK2) receptors are grown in Dulbecco's minimal essential medium supplemented with 10% fetal calf serum, 0.1 mM non-essential amino acids, 2 mM glutamine, 100 units/ml of penicillin and streptomycin, and 0.8 mg of G418/ml at 37° C. in a humidified atmosphere containing 5% CO2.
# (§2) Cells are detached from T-175 flasks with a sterile solution containing 5 mM EDTA in phosphate buffered saline. Cells are harvested by centrifugation and washed in RPMI media at […] for 5 minutes. The pellet is resuspended in Tris-HCl (pH7.4) containing 1 μM phsphoramidon and 4 ug/ml of chymostatin at a cell density of 30×10^6 cells/ml. The suspension is then homogenized in a Brinkman Polytron (setting 5) for 30-45 seconds. The homogenate is centrifuged at 800×g for 5 min at 4° C. to collect unbroken cells and nuclei. The supernatant is centrifuged in a Sorvall RC5C at 19,000 rpm ([…]) for 30 min at 4° C. The pellet is resuspended, an aliquot is removed for a protein determination (BCA) and washed again. The resulting pellet is stored at -80° C.
# (§3) To assay receptor binding, 50 μl of [^3 H]-Substance P (9-Sar, 11-Met) (specific activity 41 Ci/mmol) (Dupont-NEN) (0.8 nM for the NK-1 assay) or [^3 H]-Neurokinin A (specific activity 114 Ci/mmole) (Zenca) (1.0 nM for the NK-2 assay) is added to tubes containing buffer (50 mM Tris-HCl (pH 7.4) with 1 mM MnCl2 and 0.2% Bovine Serum Albumin) and either DMSO or test compound. Binding is initiated by the addition of 100 μl of membrane (10-20 μg) containing the human NK-1 or NK-2 receptor in a final volume of 200 μl. After 40 minutes at room temperature, the reaction is stopped by rapid filtration onto Whatman GF/C filters which have been presoaked in 0.3% polyethyleneimine. Filters are washed 2 times with 3 ml of 50 mM Tris-HCl (pH7.4). Filters are added to 6 mls of Ready-Safe liquid scintillation cocktail and quantified by liquid scintillation spectrometry in a LKB 1219 RackBeta counter. Non-specific binding is determined by the addition of either 1 μM of CP-99994 (NK-1) or 1 μM SR-48968 (NK-2) (both synthesized by the chemistry department of Schering-Plough Research Institute). IC50 values are determined from competition binding curves and Ki values are determined according to Cheng and Prusoff using the experimentally determined value of 0.8 nM for the NK-1 receptor and 2.4 nM for the NK-2 receptor.
# (§4) % Inhibition is the difference between the percent of maximum specific binding (MSB) and 100%. The percent of MSB is defined by the following equation, wherein "dpm" is disintegrations per minute: [formula]
# [2] = biological target: T2, human neurokinin 1 (NK1) receptor (Homo sapiens, UniProt P25103); experiment: Neurokinin receptor binding assay, NK1 ([3H]-Substance P); settings: for inhibition at 1 µM: read-out: % Inhibition NK1 (1 μM dose)
# T2 construct: expressed in transfected cells; host or cells: Chinese hamster ovary (CHO) cells, membranes
# Procedure: as §1, §2, §3, §4
# [3] = CHO membranes, human NK-2 receptor, [3H]-Neurokinin A 1.0 nM, Cheng-Prusoff, read-out: Ki (NK2)
# [4] = CHO membranes, human NK-1 receptor, [3H]-Substance P 0.8 nM, Cheng-Prusoff, read-out: Ki (NK1)
# T2 sequence (P25103 whole entry): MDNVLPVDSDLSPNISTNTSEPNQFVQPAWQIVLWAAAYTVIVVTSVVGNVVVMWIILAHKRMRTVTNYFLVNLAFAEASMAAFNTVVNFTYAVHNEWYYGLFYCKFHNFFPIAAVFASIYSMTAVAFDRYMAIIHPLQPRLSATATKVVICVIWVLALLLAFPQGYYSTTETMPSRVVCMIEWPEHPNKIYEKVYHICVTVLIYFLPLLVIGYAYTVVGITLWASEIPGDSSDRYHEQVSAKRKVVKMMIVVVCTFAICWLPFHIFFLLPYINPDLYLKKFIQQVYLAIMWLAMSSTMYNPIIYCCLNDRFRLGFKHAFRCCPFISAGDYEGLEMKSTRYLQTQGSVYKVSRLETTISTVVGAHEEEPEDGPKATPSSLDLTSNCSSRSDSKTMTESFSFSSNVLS
Structure (SMILES),"Ki [1, 3] [nM]","Ki [2, 4] [nM]",Ki [1] [nM],inhibition at 1 µM [1] [%],Ki [2] [nM],inhibition at 1 µM [2] [%]
COc1cc(C(=O)N(C)CC(CCN[C@@H](Cc2c[nH]c3ccccc23)C(=O)O)c2ccc(Cl)c(Cl)c2)cc(OC)c1OC (stereo partly shown) [Example 7d],30,233,,,,
Cc1cc(C(=O)N(C)CC(CCN(C)CCc2c[nH]c3ccccc23)c2ccc(Cl)c(Cl)c2)cc(Cl)n1 (stereo not shown) [Example 12c],,,39,93,103,82
CN(CCc1c[nH]c2ccccc12)CCC1(c2ccc(Cl)c(Cl)c2)CCN(C(=O)c2cc(C(F)(F)F)cc(C(F)(F)F)c2)C1 (stereo not shown) [Example 14b],,,143,88,21,81
COc1cc(C(=O)N(C)CC(CCN(C)CCCc2c[nH]c3ccccc23)c2ccc(Cl)c(Cl)c2)cc(OC)c1OC (stereo not shown) [Example 7b],217,19,,,,
COc1cc(C(=O)N(C)CC(CCN(C)CCc2c[nH]c3ccc(F)cc23)c2ccc(Cl)c(Cl)c2)cc(OC)c1OC (racemic) [Example 7c],,,,100,,
